Measurements reported in patent publication US10034886B2, “GLP-1 receptor modulators” (Celgene International II SÀRL, priority 2014, dated 2018).
pEC50: −log10 of the molar value.

Target: T1, GLP-1R (Homo sapiens, UniProt P43220)
T1 construct: host or cells: GLP-1R CRE-bla CHO-K1 cells
Assay: EC20 GLP-1(9-36) PAM cAMP assay: dose response of compound in the presence of fixed concentration of GLP-1(9-36)
Format: cell-based
Settings: GLP-1R CRE-bla CHO-K1 cells, compound dose response with fixed concentration of GLP-1(9-36), read-out: EC20 GLP-1(9-36) PAM EC50
In short: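 GLP-1R CRE-bla CHO-K1 cells treated 30 min at 37 °C with 12-point compound dose response plus fixed EC20 GLP-1(9-36), with IBMX, in HBSS/HEPES/0.1% BSA pH 7.4. Total cAMP measured by luminescent detection against standard curve; EC50 and Emax from non-linear regression.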

T1 sequence (P43220 24-463): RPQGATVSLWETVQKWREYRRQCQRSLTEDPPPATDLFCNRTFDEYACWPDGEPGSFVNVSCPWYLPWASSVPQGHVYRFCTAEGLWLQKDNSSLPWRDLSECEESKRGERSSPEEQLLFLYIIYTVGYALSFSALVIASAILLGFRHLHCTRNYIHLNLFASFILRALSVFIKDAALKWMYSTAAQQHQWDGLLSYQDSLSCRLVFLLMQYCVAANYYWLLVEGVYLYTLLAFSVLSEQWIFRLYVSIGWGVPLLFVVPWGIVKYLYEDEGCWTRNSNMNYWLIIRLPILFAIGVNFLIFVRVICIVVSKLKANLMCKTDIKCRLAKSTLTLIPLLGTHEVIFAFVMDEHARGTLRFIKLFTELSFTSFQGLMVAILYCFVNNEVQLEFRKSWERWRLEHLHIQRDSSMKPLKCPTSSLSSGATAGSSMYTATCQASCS
T1 sequence (P01275 100-127 partner limits assumed): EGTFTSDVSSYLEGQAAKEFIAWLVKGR

Q: With COc1cccc(C2CCN(c3cnc(-c4ccc(C[C@H](NC(=O)c5ccc(C(C)(C)C)s5)C(=O)N5CC(C(=O)O)C5)cc4)nc3)CC2)c1 [Compound 1477] as the compound, how does the pEC50 read?
A: > 6.10

Q: How did the pEC50 turn out when CCC(C)(C)c1ccc(C(=O)N[C@@H](Cc2ccc(-c3ncc(-c4ccc([C@H]5CC[C@H](CC)CC5)cc4)cn3)cc2)C(=O)O)cc1 [Compound 1375] was run?
A: 5.60 to 6.10

Q: How did the pEC50 turn out when Cc1ccc(-c2ccc(-c3cnc(-c4ccc(C[C@H](NC(=O)c5ccc(C(C)(C)C)s5)C(=O)N[C@H](C)C(=O)O)cc4)nc3)s2)cc1 [Compound 1302] was run?
A: 5.00 to 5.30

Q: CC[C@H]1CC[C@H](c2ccc(-c3cnc(-c4ccc(C[C@H](NC(=O)c5ccc(C(C)(C)C)s5)C(=O)O)cc4)nc3)c(F)c2)CC1 [Compound 1363] was tested. Which pEC50 did it give?
A: > 6.10

Q: CCC[C@H]1CC[C@H](C2CCN(c3cnc(-c4ccc(C[C@H](NC(=O)c5ccc(C(C)(C)C)s5)C(=O)N[C@@H](C(=O)O)C5CC5)cc4)nc3)CC2)CC1 [Compound 1444] was tested. Which pEC50 did it give?
A: > 6.10

Q: With CCC[C@H]1CC[C@H](C2CCN(c3cnc(-c4ccc(C[C@H](NC(=O)c5ccc(C(C)(C)C)s5)C(=O)N[C@@H](C(=O)O)C(C)C)cc4)nc3)CC2)CC1 [Compound 1449] as the compound, how does the pEC50 read?
A: > 6.10

Q: How did the pEC50 turn out when CCc1ccc(C2CCN(c3cnc(-c4ccc(C[C@H](NC(=O)c5ccc(C(C)(C)C)s5)C(=O)N5CC(C(=O)O)C5)cc4)nc3)CC2)cc1 [Compound 1474] was run?
A: > 6.10

Q: How did the pEC50 turn out when CCC[C@H]1CC[C@H](C2CCN(c3cnc(-c4ccc(C[C@H](NC(=O)c5cnc(C(C)(C)C)s5)C(=O)N5CC(C(=O)O)C5)cc4)nc3)CC2)CC1 [Compound 1537] was run?
A: > 6.10

Q: How did the pEC50 turn out when CC(C)CCCOc1ccc(-c2cnc(-c3ccc(C[C@H](NC(=O)c4ccc(C(C)(C)C)nc4)C(=O)N4CC(C(=O)O)C4)cc3)nc2)cc1 [Compound 1231] was run?
A: 5.60 to 6.10

Q: How did the pEC50 turn out when CCC[C@H]1CC[C@H](C2CCN(c3cnc(-c4ccc(C[C@H](NC(=O)c5ccc(CC)s5)C(=O)N5CC(C(=O)O)C5)cc4)nc3)CC2)CC1 [Compound 1533] was run?
A: > 6.10

Q: CC[C@H]1CC[C@H](c2ccc(-c3ccc(-c4ccc(C[C@H](NC(=O)c5ccc(C(C)(C)C)s5)C(=O)O)cc4)nc3)cc2)CC1 [Compound 1333, (S)-2-(5-(tert-butyl)thiophene-2-carboxamido)-3-(4-(5-(4-((1r,4r)-4-ethylcyclohexyl)phenyl)pyridin-2-yl)phenyl)propanoic acid] was tested. Which pEC50 did it give?
A: 5.30 to 5.60

Q: With CC(C)(C)c1ccc(-c2ccc(-c3cnc(-c4ccc(C[C@H](NC(=O)c5ccc(C(C)(C)C)s5)C(=O)O)cc4)nc3)cc2)cc1 [Compound 1348] as the compound, how does the pEC50 read?
A: 5.30 to 5.60

Same assay, conditions: dose response of compound in presence of fixed concentration of GLP-1(9-36), GLP-1R CRE-bla CHO-K1 cells, read-out: EC20 GLP-1(9-36) PAM EC50

Q: CCCCOc1c(OC)ccc(-c2cnc(-c3ccc(C[C@H](NC(=O)c4ccc(C(C)(C)C)s4)C(=O)N[C@H](C)C(=O)O)cc3)nc2)c1F [Compound 1022] was tested. Which pEC50 did it give?
A: 5.30 to 5.60

Q: How did the pEC50 turn out when CC(C)(C)c1ccc(C(=O)N[C@@H](Cc2ccc(-c3ncc(-c4ccc(OCC5CCCC5)cc4)cn3)cc2)C(=O)NC(C(=O)O)C(O)c2ccccc2)s1 (some centres unmarked) [Compound 940] was run?
A: 5.60 to 6.10

Q: With CCCCCCCOc1ccc(-c2cnc(-c3ccc(C[C@H](NC(=O)c4ccc(OC)cc4)C(=O)N4CC[C@H](C(=O)O)C4)cc3)nc2)cc1 [Compound 846] as the compound, how does the pEC50 read?
A: 5.30 to 5.60

Q: How did the pEC50 turn out when CC(C)(C)CCOc1ccc(-c2cnc(-c3ccc(C[C@H](NC(=O)c4ccc(C(C)(C)C)s4)C(=O)N4CC(C(=O)O)C4)cc3)nc2)cc1 [Compound 796] was run?
A: > 6.10

Q: CCCCCCCOc1ccc(-c2cnc(-c3ccc(C[C@H](NC(=O)c4ccc(C(C)(C)C)s4)C(=O)N4CCC[C@H]4C(=O)NCCC(=O)O)cc3)nc2)cc1 [Compound 494] was tested. Which pEC50 did it give?
A: > 6.10

Q: How did the pEC50 turn out when CCCCCCCOc1ccc(-c2cnc(-c3ccc(C[C@H](NC(=O)c4ccc(C(C)(C)C)cc4)C(=O)N4C[C@H](O)C[C@H]4C(=O)O)cc3)nc2)cc1 [Compound 567] was run?
A: > 6.10

Q: CCCCCCCOc1ccc(-c2cnc(-c3ccc(C[C@H](NC(=O)Cc4ccc(OCCCC)cc4)C(=O)N4CC[C@H](C(=O)O)C4)cc3)nc2)cc1 [Compound 1095] was tested. Which pEC50 did it give?
A: 5.30 to 5.60

Q: How did the pEC50 turn out when CCOC1CC(c2ccc(-c3cnc(-c4ccc(C[C@H](NC(=O)c5ccc(C(C)(C)C)s5)C(=O)N[C@H](C)C(=O)O)cc4)nc3)cc2)C1 (some centres unmarked) [Compound 1130] was run?
A: 5.60 to 6.10

Q: CCCCCCCOc1ccc(-c2cnc(-c3ccc(C[C@H](NC(=O)c4ccc(CC)s4)C(=O)N4CCC[C@H]4C(=O)O)cc3)nc2)cc1 [Compound 1072] was tested. Which pEC50 did it give?
A: 5.60 to 6.10

Q: With CCCCCCCOc1ccc(-c2cnc(-c3ccc(C[C@H](NC(=O)c4ccc(C(C)(C)C)s4)C(=O)NC[C@H]4CCNC4)cc3)nc2)cc1 [Compound 438] as the compound, how does the pEC50 read?
A: 5.00 to 5.30

Q: CCCCCCCOc1ccc(-c2cnc(-c3ccc(C[C@H](NC(=O)c4ccc(C(C)(C)C)s4)C(=O)N4CC(C)C(C(=O)O)C4)cc3)nc2)cc1 (some centres unmarked) [Compound 631] was tested. Which pEC50 did it give?
A: 5.60 to 6.10

Q: With CCCCCCCOc1ccc(-c2cnc(-c3ccc(C[C@H](NC(=O)c4ccc(C(C)(C)C)cc4)C(=O)NCCC(=O)O)cc3)nc2)cc1OC [Compound 699] as the compound, how does the pEC50 read?
A: 5.00 to 5.30

Q: How did the pEC50 turn out when CCCCCCCOc1ccc(-c2cnc(-c3ccc(C[C@H](NC(=O)c4ccc(C(C)(C)C)s4)C(=O)N4C[C@H](O)C[C@H]4C(=O)O)cc3)nc2)cc1 [Compound 612] was run?
A: > 6.10

Q: With CCCCCCCOc1ccc(-c2cnc(-c3ccc(C[C@H](NC(=O)c4ccc(C(C)(C)C)cc4)C(=O)N[C@@H](CC(=O)NCCN)C(=O)O)cc3)nc2)cc1 [Compound 484] as the compound, how does the pEC50 read?
A: 5.60 to 6.10

Q: CCCCCCCOc1ccc(-c2cnc(-c3ccc(C[C@H](NC(=O)c4sc(C(C)(C)C)cc4C)C(=O)N4CC[C@H](C(=O)O)C4)cc3)nc2)cc1 [Compound 866] was tested. Which pEC50 did it give?
A: 5.30 to 5.60

Q: With CC(C)(C)c1ccc(C(=O)N[C@@H](Cc2ccc(-c3ncc(-c4nc(-c5ccc(Cl)cc5)no4)cn3)cc2)C(=O)NCCC(=O)O)cc1 [Compound 751] as the compound, how does the pEC50 read?
A: 5.30 to 5.60

Q: CCCCCCCc1ccc(-c2cnc(-c3ccc(C[C@H](NC(=O)c4ccc(C(C)(C)C)s4)C(=O)N4CC[C@H](C(=O)O)C4)cc3)nc2)cc1 [Compound 765] was tested. Which pEC50 did it give?
A: 5.60 to 6.10

Q: How did the pEC50 turn out when CCCCCCCOc1ccc(-c2cnc(-c3ccc(C[C@H](NC(=O)c4ccc(C(C)(C)C)s4)C(=O)N[C@@H](CC(=O)N[C@@H](CO)C(=O)O)C(=O)O)cc3)nc2)cc1 [Compound 517] was run?
A: > 6.10

Q: CCCCCCCOc1ccc(-c2cnc(-c3ccc(C[C@H](NC(=O)c4ccc(C(C)(C)C)s4)C(=O)NCC4(C)CNC4)cc3)nc2)cc1 [Compound 986] was tested. Which pEC50 did it give?
A: 5.60 to 6.10

Q: With CCCCCCCOc1ccc(-c2cnc(-c3ccc(C[C@H](NC(=O)c4cc5cc(OC)ccc5[nH]4)C(=O)N[C@H](C)C(=O)O)cc3)nc2)cc1 [Compound 990] as the compound, how does the pEC50 read?
A: 5.30 to 5.60

Q: With CC(C)COc1ccc(-c2cnc(-c3ccc(C[C@H](NC(=O)c4ccc(C(C)(C)C)s4)C(=O)NC(C(=O)O)C(O)c4ccccc4)cc3)nc2)cc1 (some centres unmarked) [Compound 934] as the compound, how does the pEC50 read?
A: 5.00 to 5.30

Q: CCCCCCCOc1ccc(-c2cnc(-c3ccc(CC(NC(=O)c4ccc(C(C)(C)C)s4)C(=O)N[C@@H](Cc4ccc(O)cc4)C(=O)O)cc3)nc2)cc1 (some centres unmarked) [Compound 428] was tested. Which pEC50 did it give?
A: 5.60 to 6.10

Q: With CCCCCCCOc1ccc(-c2cnc(-c3ccc(C[C@H](NC(=O)c4ccc(C(C)(C)C)s4)C(=O)N4CC(C(=O)O)C(C)(C)C4)cc3)nc2)cc1 (some centres unmarked) [Compound 638] as the compound, how does the pEC50 read?
A: 5.30 to 5.60

Q: Cc1ccc(/C=C/c2cnc(-c3ccc(C[C@H](NC(=O)c4ccc(C(C)(C)C)s4)C(=O)N4CCC[C@H]4C(=O)O)cc3)nc2)cc1 [Compound 1125] was tested. Which pEC50 did it give?
A: 5.60 to 6.10

Q: How did the pEC50 turn out when CCCCCCCOc1ccc(-c2cnc(-c3ccc(C[C@H](NC(=O)c4ccc(C(C)(C)C)cc4)C(=O)NC(Cc4cscn4)C(=O)O)cc3)nc2)cc1 (some centres unmarked) [Compound 544] was run?
A: > 6.10

Q: With CCCCCCCOc1ccc(-c2cnc(-c3ccc(C[C@H](NC(=O)c4ccc(C(C)(C)C)s4)C(=O)N[C@@H](CC(=O)NC)C(=O)O)cc3)nc2)cc1 [Compound 512] as the compound, how does the pEC50 read?
A: > 6.10

Q: How did the pEC50 turn out when CCCCCCCOc1ccc(-c2cnc(-c3ccc(C[C@H](NC(=O)c4cnc(C(C)(C)C)nc4)C(=O)N4CC[C@H](C(=O)O)C4)cc3)nc2)cc1 [Compound 856] was run?
A: 5.60 to 6.10

Q: With CC[C@H]1CC[C@H](c2ccc(-c3cnc(-c4ccc(C[C@H](NC(=O)c5ccc(C(C)C)cc5)C(=O)N5CC(C(=O)O)C5)cc4)nc3)cc2)CC1 [Compound 1169] as the compound, how does the pEC50 read?
A: > 6.10

Q: With CSc1cccc(-c2cnc(-c3ccc(C[C@H](NC(=O)c4ccc(C(C)(C)C)s4)C(=O)N[C@H](C)C(=O)O)cc3)nc2)c1 [Compound 995] as the compound, how does the pEC50 read?
A: 5.00 to 5.30

Q: How did the pEC50 turn out when CCCCCCCOc1ccc(-c2cnc(-c3ccc(C[C@H](NC(=O)/C=C/c4ccc(OC)cc4)C(=O)N4CC(C(=O)O)C4)cc3)nc2)cc1 [Compound 1103] was run?
A: 5.60 to 6.10

Q: How did the pEC50 turn out when CC(C)COc1ccc(-c2cnc(-c3ccc(C[C@H](NC(=O)c4ccc(C(C)(C)C)cc4)C(=O)NCCC(=O)O)cc3)nc2)cc1 [Compound 685] was run?
A: 5.30 to 5.60

Q: CCCCCCCOc1c(C)cc(-c2cnc(-c3ccc(C[C@H](NC(=O)c4ccc(C(C)(C)C)cc4)C(=O)NCCC(=O)O)cc3)nc2)cc1C [Compound 705] was tested. Which pEC50 did it give?
A: 5.60 to 6.10

Q: How did the pEC50 turn out when CCCCCCCOc1ccc(-c2cnc(-c3ccc(C[C@H](NC(=O)c4ccc(C(C)(C)C)s4)C(=O)NC)cc3)nc2)cc1 [Compound 383] was run?
A: 5.30 to 5.60

Q: CCCCCCCCOc1ccc(-c2cnc(-c3ccc(C[C@H](NC(=O)c4ccc(C(C)(C)C)s4)C(=O)N4CC[C@H](C(=O)O)C4)cc3)nc2)cc1 [Compound 764] was tested. Which pEC50 did it give?
A: > 6.10

Q: How did the pEC50 turn out when CCCCCCCOc1ccc(-c2cnc(-c3ccc(C[C@H](NC(=O)c4ccc(C(C)(C)C)cc4)C(=O)N[C@@H](CC(=O)O)C(=O)N(C)CCN(C)C)cc3)nc2)cc1 [Compound 505] was run?
A: 5.60 to 6.10

Q: How did the pEC50 turn out when CCCCCCCOc1ccc(-c2cnc(-c3ccc(C[C@H](NC(=O)c4ccc(C(C)(C)C)s4)C(=O)N[C@H](CC(=O)NC)C(=O)O)cc3)nc2)cc1 [Compound 663] was run?
A: 5.60 to 6.10

Q: How did the pEC50 turn out when CCCCCCCOc1ccc(-c2cnc(-c3ccc(C[C@H](NC(=O)c4ccc(C(C)(C)C)cc4)C(=O)NCCC(=O)O)cc3)nc2)cc1CC [Compound 703] was run?
A: > 6.10

Q: With CC(C)Cc1ccc(-c2cnc(-c3ccc(C[C@H](NC(=O)c4ccc(C(C)(C)C)s4)C(=O)N[C@H](C)C(=O)O)cc3)nc2)cc1 [Compound 1021] as the compound, how does the pEC50 read?
A: 5.30 to 5.60
